Experiments:
rabbit lung ACE = molecular target: T1, rabbit lung ACE (Oryctolagus cuniculus, UniProt P12822); test: ACE inhibitory assay; format: biochemical; details: IC50 against ACE, positive control; performed in this study
T1 sequence (P12822 34-1310): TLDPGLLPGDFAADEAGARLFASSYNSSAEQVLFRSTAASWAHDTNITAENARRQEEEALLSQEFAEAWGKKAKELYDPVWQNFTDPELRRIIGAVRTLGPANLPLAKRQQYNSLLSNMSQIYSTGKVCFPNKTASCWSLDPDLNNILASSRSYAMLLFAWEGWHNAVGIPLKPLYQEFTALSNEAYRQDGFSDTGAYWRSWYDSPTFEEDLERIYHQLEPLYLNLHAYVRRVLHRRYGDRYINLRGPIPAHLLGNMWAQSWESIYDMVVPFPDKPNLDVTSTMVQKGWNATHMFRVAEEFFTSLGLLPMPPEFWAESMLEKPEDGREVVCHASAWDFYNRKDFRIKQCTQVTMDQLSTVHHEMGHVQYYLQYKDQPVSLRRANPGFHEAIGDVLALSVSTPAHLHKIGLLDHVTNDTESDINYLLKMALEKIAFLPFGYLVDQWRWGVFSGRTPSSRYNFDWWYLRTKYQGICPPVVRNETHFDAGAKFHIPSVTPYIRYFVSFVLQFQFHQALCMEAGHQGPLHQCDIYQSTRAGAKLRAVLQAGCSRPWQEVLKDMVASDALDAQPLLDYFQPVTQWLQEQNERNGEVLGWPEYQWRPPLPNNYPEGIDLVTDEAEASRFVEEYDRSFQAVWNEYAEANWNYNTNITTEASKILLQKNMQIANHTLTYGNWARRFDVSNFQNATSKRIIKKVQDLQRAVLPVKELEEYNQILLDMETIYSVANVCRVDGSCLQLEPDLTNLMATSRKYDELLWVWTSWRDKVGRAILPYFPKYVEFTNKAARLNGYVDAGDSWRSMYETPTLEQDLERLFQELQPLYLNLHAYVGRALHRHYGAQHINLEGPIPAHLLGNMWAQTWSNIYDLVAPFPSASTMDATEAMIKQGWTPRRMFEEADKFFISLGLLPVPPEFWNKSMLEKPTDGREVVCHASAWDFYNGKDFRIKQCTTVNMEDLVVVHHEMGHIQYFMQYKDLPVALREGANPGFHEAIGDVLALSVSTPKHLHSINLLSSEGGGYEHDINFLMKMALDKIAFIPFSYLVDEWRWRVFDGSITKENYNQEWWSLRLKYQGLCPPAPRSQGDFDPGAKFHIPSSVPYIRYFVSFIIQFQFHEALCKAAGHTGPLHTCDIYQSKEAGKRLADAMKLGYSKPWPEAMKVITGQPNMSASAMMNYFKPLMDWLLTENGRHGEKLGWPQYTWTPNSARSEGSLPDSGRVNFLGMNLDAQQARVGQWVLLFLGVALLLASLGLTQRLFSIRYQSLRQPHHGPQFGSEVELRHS

Candida rugosa lipase = details: read-out: IC50 against lipase; positive control; ref Chupeerach et al., 2022[35]; cited from earlier work

| SMILES | IC50 (rabbit lung ACE) [µM] | IC50 (Candida rugosa lipase) [µM] |
| --- | --- | --- |
| NCCCC[C@H](N[C@@H](CCc1ccccc1)C(=O)O)C(=O)N1CCC[C@H]1C(=O)O [Lisinopril, lisinopril] | 0.00179 |  |
| CCCCCCCCCCC[C@@H](C[C@@H]1OC(=O)[C@H]1CCCCCC)OC(=O)[C@H](CC(C)C)NC=O [Orlistat, orlistat] |  | 7.94 |

Reference: paper PMC11467430 (Scientific Reports, 2024)
